Test results as given in PubChem BioAssay (NCI).
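Assay format: 96-well plates, 48-hour exposure. TGI: total growth inhibition.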

Key:
Test in all cases: inhibition of tumour cell growth, NCI panel, 48 h
[1] = test system: 786-0 renal
[2] = test system: CCRF-CEM leukemia
[3] = test system: HCT-15 colon
[4] = test system: HL-60(TB) leukemia
[5] = test system: HOP-92 NSCLC
[6] = test system: KM12 colon
[7] = test system: M14 melanoma
[8] = test system: NCI-H226 lung
[9] = test system: NCI/ADR-RES ovarian
[10] = test system: OVCAR-8 ovarian
[11] = test system: RXF 393 renal
[12] = test system: SK-MEL-5 melanoma
[13] = test system: SNB-19 CNS
[14] = test system: SW-620 colon
[15] = test system: UACC-257 melanoma

Compound | TGI [1] [µM] | TGI [2] [µM] | TGI [3] [µM] | TGI [4] [µM] | TGI [5] [µM] | TGI [6] [µM] | TGI [7] [µM] | TGI [8] [µM] | TGI [9] [µM] | TGI [10] [µM] | TGI [11] [µM] | TGI [12] [µM] | TGI [13] [µM] | TGI [14] [µM] | TGI [15] [µM]
COc1ccccc1CC1(O)OC(=O)c2ccccc21 (stereo not given) | > 100 | > 100 | > 100 | > 100 | > 100 | > 100 | > 100 | > 100 | > 100 | > 100 | > 100 | > 100 | > 100 | > 100 | > 100
O=C(O)c1ccc(C2=Nc3cccc4cccc(c34)N2)cc1 | > 100 | > 100 | > 100 | > 100 | > 100 | > 100 | > 100 | > 100 | > 100 | > 100 | > 100 | > 100 | > 100 | > 100 | > 100
COc1c(OC)c(OC)c2c(=O)c(OC)c(-c3ccc4c(c3)OCO4)oc2c1OC | > 100 | > 100 | > 100 | 33.4 | > 100 | > 100 | > 100 | > 100 | > 100 | > 100 | > 100 | > 100 | > 100 | > 100 | > 100
